The text below walks through data of article PMC6154633, “In Vitro Anticancer Activity and Structural Characterization of Ubiquinones from Antrodia cinnamomea Mycelium” (Molecules : A Journal of Synthetic Chemistry and Natural …, 2017).

In assay [1] the test system is HepG2 cells. Briefly: Cytotoxicity, cell counting kit-8 assay, HepG2. In kind it is cell-based. As to conditions: Homo sapiens, 24 h treatment, mean n = 3. The procedure: (§1) Three human cancer cell lines (A549, HepG2 and PC3) and normal cell line (MDCK) were obtained from the ATCC (Manassas, VA, USA) and grown on Eagle’s minimum essential medium (EMEM, GIBCO, Waltham, MA, USA) supplemented with F12 medium containing 10% FBS, 100 IU/mL penicillin and 100 μg/mL streptomycin [17].
(§2) Viability of the human cancer cell lines and normal cell line treated with different concentrations of A. cinnamomea extracts, subfractions, and isolates was evaluated using the cell counting kit-8 assay. Briefly, a total of 5 × 10^3 cells/well (A549, HepG2, PC3, or MDCK cells) were seeded into 96-well plates for 12 h, and the cells were treated with various concentrations of the isolated compounds (0.01–100 μM, double dilution method) for 24 h. The original medium was removed, 10% of the cell counting kit-8 in PBS was added to each well, and the plates were incubated for 2 h. The absorbance was measured at 540 nm using an enzyme-linked immunosorbent assay (ELISA) plate reader.
(§3) All experiments were carried out in triplicate, and each experiment was repeated three times. Data analysis was carried out using SPSS statistical package version 18.0 (SPSS, Inc., Armonk, NY, USA). The IC50 values (the concentration of drug necessary to induce 50% inhibition) were measured for all of the tested drugs using the Probit test in the SPSS software. The cell cycle distribution values of mean and standard deviation (mean ± SD) and 95% confidence intervals (CI) of means to verify the statistical significance of all parameters were calculated. The p-values of < 0.05 were adopted as statistically significant. All data are presented in this report as means ± SD of three replicates from three separate experiments.
For orientation: Formazan colour is commonly taken as a measure of viable cells.

In assay [2] the test system is PC3 cells. Kind of assay: Cytotoxicity, cell counting kit-8 assay, PC3. It counts as cell-based. As to conditions: Homo sapiens, PC-3, mean n = 3. The procedure:
as §1, §2, §3

Assay [3] relates to A549 cells. Briefly: Cytotoxicity, cell counting kit-8 assay, A549. Conditions: Homo sapiens, mean n = 3. In kind it is cell-based. The protocol: as §1, §2, §3
The subject of assay [4] is MDCK cells. Kind of assay: Cytotoxicity, cell counting kit-8 assay, MDCK normal cell line. In kind it is cell-based. Conditions: Canis lupus familiaris, non-malignant cell line, 24 h treatment, mean n = 3. The procedure:
as §1, §2, §3

The subject of assay [5] is HepG2 cells. Kind of assay: Cell cycle distribution analysis by flow cytometry (PI staining). In kind it is cell-based, human. Conditions: for G1 (%) / G2-M (%) / S (%) / sub G1 (%): 24 h, HepG2, mean ± SD. The procedure:
Stock solutions of 4-acetylantrocamol LT3 (20 mM) were prepared by dissolving them in DMSO, and appropriate working dilutions were prepared with the cell culture medium prior to the experiments. For cell cycle distribution analysis, HepG2 cells were treated with DMSO (control) and 4-acetylantrocamol LT3 for 24 h. The cells were then fixed in ice-cold 70% methanol for overnight. After an additional wash with PBS, the cell pellets were stained with 1 mL of propidium iodide (PI) staining solution containing 200 μg of PI in 1 mL of PBS containing 2 mg of DNase free RNase for 30 min. Acquisition and analysis were performed by flow cytometry (FACSCalibur flow cytometer, Becton, Dickinson and Co., Franklin Lakes, NJ, USA) with excitation at 488 nm. Data on each sample represent the percentage of cells in the sub-G1, G1, S, G2/M phases of the cell cycle, respectively.
as §3
In general terms: Flow cytometry measures light scatter and fluorescence of single cells or particles in a stream.

Assay [6] relates to A549, HepG2, and PC3 cell lines. Briefly: Cytotoxicity against three human cancer cell lines (summary statements). In kind it is cell-based. As to conditions: in words. The protocol:
as §1, §2, §3

In general, IC50 refers to the concentration that gives 50% inhibition. A higher IC50 goes with a need for much substance. As for `COC1=CC(=O)C(CC=C(C)CCC=C(C)CCC=C(C)C)=C(C)C1=O` [Compound 1, 5-methoxy-3-methyl-2-(3,7,11-trimethyldodeca-2,6,10-trienyl)cyclohexa-2,5-diene-1,4-dione], the IC50 was more than 100 µM in assay [1]; 0.014 µM in assay [2] (24 h treatment); 0.382 µM in assay [3] (A549, 24 h, 24 h treatment); more than 100 µM in assay [4].

On to `COC1=C(OC)[C@H](OC(C)=O)[C@H](C/C=C(\C)CC/C=C(\C)C/C=C/C(C)(C)O)[C@@H](C)C1=O` [Compound 2, 4-acetylantrocamol LT3], for which the “G1 (%)” value in assay [5] (1 μM) was 37.4 ± 4.2%; in assay [5] (10 μM), 32.9 ± 2.4%. The “G2-M (%)” value in assay [5] (1 μM) was 33.6 ± 4.7%; in assay [5] (10 μM), 33.6 ± 5.6%. In addition, the entries for the “S (%)” value in assay [5] (1 μM) and in assay [5] (10 μM) were 15.4 ± 1.6% and 19.3 ± 4.9%, respectively. Further, the “sub G1 (%)” value in assay [5] (1 μM) came to 6.0 ± 0.7%; in assay [5] (10 μM), 9.2 ± 2.1%. The “sub-G1 phase accumulation compared with control cells” value in assay [5] (HepG2, 24 h, dose dependent) is listed as 4–7 fold. Also, the IC50 is 0.128 µM in assay [1]; 4.29 µM in assay [2] (24 h treatment); 0.027 µM in assay [3] (A549, 24 h, 24 h treatment); more than 100 µM in assay [4].

Regarding `COC1=C(OC)C(=O)C(C/C=C(\C)CC/C=C(\C)CCC=C(C)C)=C(C)C1=O` [Compound 3, quinone Q3], the half-maximal inhibitory concentration (IC50) in assay [1] is more than 100 µM; in assay [2] (24 h treatment), 0.06 µM; in assay [3] (A549, 24 h, 24 h treatment), 4.16 µM; in assay [4], more than 100 µM.

As to `COC1=C(OC)[C@H](O)[C@H](C/C=C(\C)CC/C=C(\C)C/C=C/C(C)(C)O)[C@@H](C)C1=O` [Compound 4, antrocamol LT3], the half-inhibitory concentration (IC50) in assay [1] is 0.106 µM; in assay [2] (24 h treatment), 0.001 µM; in assay [4], more than 100 µM.

For the molecule `COC1=C(OC)[C@H](O)[C@H](C/C=C(\C)CC/C=C(\C)CCC=C(C)C)[C@@H](C)C1=O` [Compound 5, antroquinonol], the IC50 in assay [1] amounted to 0.044 µM; in assay [2] (24 h treatment), 0.073 µM; in assay [3] (A549, 24 h, 24 h treatment), 0.421 µM; in assay [4] it was 10.5 µM.

Turning to `COC1=C(OC)[C@H](OC(C)=O)[C@H](C/C=C(\C)CC/C=C(\C)CCC=C(C)C)[C@@H](C)C1=O` [Compound 6, 4-acetylantroquinonol], the IC50 amounted to 0.075 µM in assay [1]; 2.31 µM in assay [2] (24 h treatment); 0.611 µM in assay [3] (A549, 24 h, 24 h treatment); 41.6 µM in assay [4].

`COC1=C(OC)[C@H](O)[C@H](C/C=C(\C)CC/C=C(\C)C[C@H]2C[C@@H](C)C(=O)O2)[C@@H](C)C1=O` [Compound 7, antroquinonol B]: the IC50 in assay [1] is 21.4 µM; in assay [2] (24 h treatment), 1.03 µM; in assay [3] (A549, 24 h, 24 h treatment), 6.03 µM; in assay [4] it was more than 100 µM.

As to `COC1=C(OC)[C@H](OC(C)=O)[C@H](C/C=C(\C)CC/C=C(\C)C[C@H]2C[C@@H](C)C(=O)O2)[C@@H](C)C1=O` [Compound 8, 4-acetylantroquinonol B], the half-maximal inhibitory concentration (IC50) in assay [1] is more than 100 µM; in assay [2] (24 h treatment), 20.3 µM; in assay [3] (A549, 24 h, 24 h treatment), 35.9 µM; in assay [4], more than 100 µM.

On to `COc1cc(C)c(OC)c2c1OCO2` [Compound 9, 4,7-dimethoxy-5-methyl-1,3-benzodioxole], for which the half-inhibitory concentration (IC50) in assay [1] is more than 100 µM; in assay [2] (24 h treatment), 13.3 µM; in assay [3] (A549, 24 h, 24 h treatment), more than 100 µM; in assay [4] it was more than 100 µM. The “activity against the cancer cell lines” value in assay [6] was “poor activity”.

`COc1cc(C)c(O)c(OC)c1O` [Compound 10, 2,4-dimethoxy-6-methyl-benzene-1,3-diol]: the IC50 in assay [1] is more than 100 µM; in assay [2] (24 h treatment), more than 100 µM; in assay [3] (A549, 24 h, 24 h treatment) it was more than 100 µM; in assay [4] it was more than 100 µM. The “activity against the cancer cell lines” value in assay [6] is on record as “poor activity”.

As for `CC(C)=CCOc1ccc(C2=C(CC(C)C)C(=O)OC2=O)cc1` [Compound 11, antrodin A], the IC50 in assay [1] is 90.4 µM; in assay [2] (24 h treatment), more than 100 µM; in assay [3] (A549, 24 h, 24 h treatment), more than 100 µM; in assay [4] it was more than 100 µM. In addition, the “activity against the cancer cell lines” value in assay [6] is recorded as “poor activity”.

`CC(=O)O[C@H]1C(=O)[C@@]2(C)[C@H]([C@H](OC(=O)c3ccccc3)[C@]3(O)C[C@H](OC(=O)[C@H](O)[C@@H](NC(=O)c4ccccc4)c4ccccc4)C(C)=C1C3(C)C)[C@]1(OC(C)=O)CO[C@@H]1C[C@@H]2O` [Taxol, reference compound]: the IC50 in assay [2] (positive control, unit given in row label) was found to be 0.000461 µM; in assay [3] (A549, positive control, unit given in row label), 0.000354 µM.

In assay [1], `COc1cc([C@@H]2c3cc4c(cc3[C@@H](O[C@@H]3O[C@@H]5CO[C@@H](C)O[C@H]5[C@H](O)[C@H]3O)[C@H]3COC(=O)[C@H]23)OCO4)cc(OC)c1O` [Vepesid, reference compound] had an IC50 of 4.05 µM.
